# US12453725B2, “Treatment of inflammatory disease” (Celleron Therapeutics Limited, priority 2019, dated 2025)
# Columns and labels:
# [1] = Phase Ib/II clinical trial CTL-101-023, CXD101 with nivolumab, safety; type: in vivo, human; details: study CTL-101-023
# Method: A clinical trial was conducted involving 55 subjects. The clinical trial protocol is summarized below: • Protocol Number: CTL-101-023 • Investigational Product: CXD101 and nivolumab Active Ingredient(s)/INN: • CXD101 or N-(2-aminophenyl)-4-(1-[(1,3-dimethyl-1H-pyrazol-4yl) methyl]piperidin-4-yl)benzamide is a Class I-selective histone deacetylase (HDAC) inhibitor. • Nivolumab is a programmed death receptor-1 (PD-1)-blocking antibody. […] 2. […] Subjects may continue to receive CXD101/nivolumab until complete response, disease progression, unacceptable toxicity, withdrawal of consent, or other medical problems supervene. • Efficacy will be measured using Immune Response Evaluation Criteria in Solid Tumours (iRECIST) Imaging studies, typically CT scan of chest, abdomen & pelvis, supplemented by MRI of liver when required, will be performed at Baseline and after every 6 weeks, with objective confirmation of response 6 weeks (+/−1 week) after observation. • Safety parameters will be assessed as in the Phase I study. […]
# HDAC Class 1l = assay: HDAC Class II inhibition; type: biochemical; details: stated as no activity; read-out: activity against HDAC Class 1l
# physchem = details: 25 °C, aqueous buffer
# colon26 tumours = assay: Syngeneic colon26 colon carcinoma model; type: in vivo
# Method: To assess gene expression in tumours that were growing in vivo, we evaluated the effect of CXD101 in the syngeneic colon26 colon carcinoma model in tumours grown subcutaneously in Balb/c mice, with CXD101 given orally for two 5-day consecutive periods and performed RNAseq on RNA purified from the tumours. Formalin-fixed paraffin-embedded samples were also prepared to assess by immunohistochemistry (IHC) the tumour micro-environment.
# Syngeneic colorectal tumour xenograft Colon 26 model was induced in female BALB/c mice and MC38 model in C57BL/6 mice by subcutaneous injection of cell suspension into the flank following the anaesthetization by inhalation of isoflurane. Upon solid tumour formation Colon 26 animals were divided into six experimental groups treated respectively with: vehicle control (control), CXD101, anti-PD-1 mAb (BioXCell, USA), anti-CTLA4 mAb (BioXCell, USA), combination of CXD101 with anti-PD-1 antibody and combination of CXD101 with anti-CTLA4 antibody. MC38 animals were divided into four groups, without CTLA-4-based treatment. During the course of experiment animals were monitored twice daily and weighed three times a week. Mice in bad overall condition and/or tumour volume exceeding 1000 mm3 were euthanized. Tumour volume was calculated by two-dimensional measurement according to the formula: Tumour volume=(a×b^2)×0.5 in which a—represents the largest and, b—the perpendicular tumour diameter. The study was terminated on 36th day (Colon 26) or 48th day (MC38). All Colon 26 animal handling has been executed by Charles River Laboratories (Germany) personnel with compliance to all local and international laws and regulations. Experiments involving MC38 tumour model have been executed by Crown Bioscience San Diego (USA). CXD101 Clinical Trial in Combination with Nivolumab (CTL-101-023)
# histone H3 acetylation = assay: Histone H3 acetylation, SW620 cells (western blot); type: cell-based, human; details: SW620, 72 hours
# Method: Cell pellets were lysed in TNN buffer, for 30 minutes on ice and centrifuged for another 30 minutes at maximum speed at 4° C. Protein concentration was assessed by Bradford assay (Quick Start™ Bradford 1× Dye Reagent, Bio-Rad Laboratories, USA). After gel electrophoresis, proteins were transferred onto the PVDF membrane by means of Trans-Blot® Turbo™ Transfer System (Bio-Rad Laboratories, USA) and blocked by 1 h incubation in 5% skim milk (Merck Group, Germany) in PBST at RT. To confirm acetylation induced by CXD101, membranes were incubated with anti-H3 (ab1791, abcam) antibody, anti-H3Ack9 (ab10812, abcam) in case of CT26 cells, and for SW620 with H3Ack14 antibody (#7627, Cell Signaling) overnight, at 4° C. Next, membranes were washed and treated with secondary antibody for 1 h at RT. Chemiluminescent signals were detected by LICOR C-Digit (LI-COR Biosciences, USA), and the data quantified using ImageJ software (National Institutes of Health, USA).
structure (smiles),measurement,setting,value
"Cc1nn(C)cc1CN1CCC(c2ccc(C(=O)Nc3ccccc3N)cc2)CC1 [CXD101, N-(2-aminophenyl)-4-(1-[(1,3-dimethyl-1H-pyrazol-4-yl)methyl]piperidin-4-yl)benzamide]",neutropenia due to myelosuppression,[1],varying degrees of neutropenia
same,IC50,HDAC Class 1l,≥ 2500 nM
same,solubility,physchem,≥ 500 µg/mL
same,growth of colon26 tumours,colon26 tumours; mono-therapy vs combined treatment study,inhibitory effect
same,body weight,"colon26 tumours; mono-therapy, 15 and 50 mg/kg",minimal effect
same,tumour growth,"colon26 tumours; mono-therapy, oral, two 5-day periods, 15 and 50 mg/kg, dose-dependent",significant inhibition of tumour growth
same,acetylation on histone H3 lysine,histone H3 acetylation,increased level of acetylation
